# Values quoted from earlier work in PMC12664280, “Integrative transcriptomics and peptidomics approach reveals unexpectedly diverse endogenous secretory peptides in Odorrana grahami frog skin” (BMC Biology, 2025).
# Bridges are numbered along the chain shown (N, C = ends). Where no end group is shown, it is not given here.
# System: skin wound
# Conditions: previously reported ESPs in Odorrana grahami, Table S1; cited from earlier work
# Source text: Supplement 12915_2025_2463_MOESM1_ESM.xlsx, sheet "Table S1" | column: Previously reported ESPs in Odorrana grahami || The cathelicidin family: In this study, we report two new ESPs, OG-CATH1 and OG-CATH2, with OG-CATH1 corresponding to two precursor proteins. These peptides are similar to OL-CATH1 and OL-CATH2 from the skin of O. livida, and Cathelicidin-RC1 from frog L. catesbeianus (Fig. S12). However, they show low similarity (20.3%, data not shown) to Cathelicidin-OA1 from the skin of O. andersonii.
row,Substance,Functional effect: wound-healing
1,APFRMGICTTN [odorregulin-E1],wound-healing
2,ATAWDFGPHGLLPIRPIRIRPLCG [odorranain-M1],wound-healing

# System: HaCat cells
# Design: method as in PMID 18455266
# Conditions: mechanically injured HaCat cells; enhancing the expression of CXCL8, TGFβ, COX-2, VEGF and TLR2; ref [94]; cited from earlier work
row,Substance,In vitro wound healing potential
1,bombesin,in vitro wound healing potential

# System: not given
# Conditions: annotation in words; no reference given, so it comes from the DADP database (table note); ref DADP database; cited from earlier work
# Source text: Supplement 12915_2025_2463_MOESM1_ESM.xlsx, sheet "Table S8" | column: Functional effect
row,Substance,Functional effect
1,AALRGCWTKSIPPKPCSGKR [Odorranain-B-RA1],antimicrobial
2,ATNIPFKVHFRCKAAFC [Ranatuerin-2R-RA1],antimicrobial
3,AVNIPFKVHFRCKAAFC [Ranatuerin-2R-RA2],antimicrobial
4,DANVENGEDAEDLTDKFIGLMG [Andersonin-6],immunomodulating
5,DCTRWIIGINGRICRD [Nigroain-E-RA],antimicrobial
6,FLPAVIRVAANVLPTAFCAISKKC [Brevinin-1-RAA10],antimicrobial
7,FLPKLFAGIISKNF [Andersonin-Y2],antimicrobial
8,FLPKLFAKITKKNMAHIR [Andersonin-Y1],antimicrobial
9,FLPPSPWKETFRTS [Odorranain-S-RA],antimicrobial
10,FMPILSCSRFKRC [Odorranain-G-RA2],antimicrobial
11,GCSRWIIGIHGQICRD [Odorranain-U-RA],antimicrobial
12,GFMATAKNVAKNMDVTLLDNLKCKITKAC [Odorranain-F-OA4],antimicrobial
13,GFMDTAKNVAKNEAGNLLDNLKCKITKAC [Odorranain-F-OA3],antimicrobial
14,GFMDTAKNVAKNMAGNLLDNLKCKITKAC [Odorranain-F-OA1],antimicrobial
15,GFMDTAKNVAKNMAVTLLDNLKCKITKAC [Odorranain-F-RA1],antimicrobial
16,GIFGKILGVGKKTLCELSGMC [Nigrocin-1-OA2],antimicrobial
17,GIFLKVLGVGKKVLCGVSGLC [Nigrocin-1-OA3],antimicrobial
18,GIFTLIKGAAKLIGKTVAKEAGKTGLELMACKITNQC [Esculentin-2-RA2],antimicrobial
19,GILDTFKNMALNAAKSAGVSVLNALSCKLSKTC [Brevinin-2-RA9],antimicrobial
20,GLFSKFAGKGIKDLIFKGVKHIGKEVGMDVIRTGIDVAGCKIKGEC [Esculentin-1-RA8],antimicrobial
21,GLFSKFAGKGIKNFLIKGVKHIGKEVGMDVIRTGIDVAGCKIKGEC [Esculentin-1-RA5],antimicrobial
22,GLFSKFAGKGIKNFLNKGVKHIGKE [Esculentin-1-OA6],antimicrobial
23,GLFSKFAGKGIKNLIFKGVKHIGKEVGMDVIRTGIDVAGCKIKGEC [Esculentin-1-RA7],antimicrobial

row,Substance,Functional effect
1,GLFSKFAGKGIVNFLIEGVE [Andersonin-X1],antimicrobial
2,GLFSKFSGKGIKNFLIKGVKHIGKEVGMDVIRTGIDVAGCKIKGEC [Esculentin-1-OA2],antimicrobial
3,GLFSKFVGKGIKNFLIKGVKHIGKEVGMDVIRVGIDVAGCKIKGVC [Esculentin-1-OA1],antimicrobial
4,GLFTKFAGKGIKDLIFKGVKHIGKEVGMDVIRTGIDVAGCKIKGEC [Esculentin-1-RA4],antimicrobial
5,GLFTLIKGAAKLIGKTTAKEAGKTGKLEMACKITNQC [Esculentin-2-OA2],antimicrobial
6,GLFTLIKGAAKLIGKTVAKEAGKTGLELMACKITNQC [Esculentin-2-OA3],antimicrobial
7,GLFTLIKGAYKLDAPTVACN [Odorranain-J-OA1],antimicrobial
8,GLFTLIKGAYKNDAPTVACN [Odorranain-J-OA2],antimicrobial
9,GLLDGILNANFNAAKSAGTSVLNALSCKLSKTC [Brevinin-2-OA5],antimicrobial
10,GLLDTFKNLALNAAESAGVSVLNSLSCKLSKTC [Brevinin-2-RA5],antimicrobial
11,GLLDTFKNLALNAAKSAGVSVLNSLSCKLSKTC [Brevinin-2-RA11],antimicrobial
12,GLLDTFKNMAINAAHGAGVSVLNALSCKLKKTC [Brevinin-2-OA3],antimicrobial
13,GLLDTFKNMALNAAKSAGVSVLNALSCKLSKTC [Brevinin-2-OA2],antimicrobial
14,GLLRASSVWGRKYYVDLAGCAKA [Odorranain-W-RA1],antimicrobial
15,GLLSGILGAGKHIVCGLSGLC [Nigrosin-RA2],antimicrobial
16,GLLSGVLGVGKKIVCGLSGLC [Nigrosin-RA3],antimicrobial
17,GVLATVKNLLIGTGDGAAQSVLKTLSCKLSNDC [Brevinin-2-OA6],antimicrobial
18,GVLATVKNLLNGTGDGAAQSVLKTLSCKLSNDC [Brevinin-2-OA8],antimicrobial
19,GVLGTVKDLLIGAGKSAAQSTLKTLSCKISNDC [Brevinin-2-OA7],antimicrobial
20,VIPFVASVAAEMMQHVYCAASKKC [Odorranain-P-RA2],antimicrobial
21,VIVFVASVAAEMMQHVYCAASKKC [Odorranain-P-RA1],antimicrobial
22,VVKCSYRLGSPDSQCN [Odorranain-A-RA7],antimicrobial

# Same assay, conditions: annotation in words; ref [4]; cited from earlier work
row,Substance,Functional effect
1,ENMFNIKSSVESDSFWG [Andersonin-N1],"Insulin-Releasing, immunomodulating"
2,FIFPKKNIINSLFGR [Andersonin-I1],"antimicrobial, Insulin-Releasing, immunomodulating"
3,GLLSGINAEWPC [OA-GL12],wound-healing
4,QMFHLWYLRHMKNKKPMA [Andersonin-X],"Insulin-Releasing, immunomodulating"
5,TSRCIFYRRKKCS [Andersonin-G],"antimicrobial,Insulin-Releasing"
6,VAIYGRDDRSDVCRQVQHNWLVCDTY [Andersonin-M3],immunomodulating
7,VVKFSYRKGSPAPQKN [Odorranain-A-OA12],immunomodulating

# System: not given
# Conditions: previously reported ESPs in Odorrana grahami, Table S1; cited from earlier work
# Source text: (§1) Supplement 12915_2025_2463_MOESM1_ESM.xlsx, sheet "Table S1" | column: Previously reported ESPs in Odorrana grahami
Substance,Functional effect: myotropic activities,Functional effect: lectin
DDASDRAKKFYGLM [ranamargarin],myotropic activities,
DDTEDLANKFIGLM [tachykinin_OG1],myotropic activities,
QNTYRAPQWAVGHLM [odorranain-BLP-5],myotropic activities,
QRECRAPHWAIGHFM [odorranain-BLP-1],myotropic activities,
QREYRAPHWAIGHFM [odorranain-BLP-4],myotropic activities,
QREYRTPHWAIGHFM [odorranain-BLP-3],myotropic activities,
QSTYRAPQWAVGHLM [odorranain-BLP-2],myotropic activities,
RPPGFSPFR [bradykinin],myotropic activities,
RPPGFTPFR [Thr6-bradykinin],myotropic activities,
RPPGLTPFR [Leu5Thr6-bradykinin],myotropic activities,
YASPKCFRYPNGVLACT [odorranalectin],,lectin

# Same assay, conditions: previously reported ESPs in Odorrana grahami, Table S1; discovered in brain only; cited from earlier work
row,Substance,Functional effect: opioid peptide
1,DYTIRTRLHQESSRKVL [odorranaopin],opioid peptide discovered in brain ONLY

# System: NO release
# Conditions: previously reported ESPs in Odorrana grahami, Table S1; cited from earlier work
# Source text: as §1
row,Substance,Functional effect: inhibits NO release
1,"GLFGKILGVGKKVLCGLSGMC (disulfide 15-21 (inferred)) [nigrocin-2GRb, FSAP family mature peptide identified via LC-MS/MS in O. grahami skin secretion]",inhibits NO release
2,GLGGAKKNFIIAANKTAPQSVKKTFSCKLYNG [odorranain-E1],inhibits NO release

# System: trypsin
# Conditions: previously reported ESPs in Odorrana grahami, Table S1; cited from earlier work
# Source text: as §1
row,Substance,Functional effect: trypsin inhibitor
1,AALKGCWTKSIPPKPCFGKR [odorranain-B1],trypsin inhibitor
2,"AVNIPFKVHFRCKAAFC (disulfide 12-17 (inferred)) [OGTI, FSAP family mature peptide identified via LC-MS/MS in O. grahami skin secretion]",trypsin inhibitor
